Laboratory results taken from the NIST ThermoML archive (doi:10.1021/je900244c).
“And” between values parts separate entries of the source, which are not always exact repeats. Equal entries are not always repeated. ± gives the expanded uncertainty stated by the source.

Assay: xn = mol fraction of the nth substance listed
Conditions: Gas, Buoyancy - hydrostatic balance with magnetic suspension - two sinkers

CC(C)C [2-methylpropane] + CCC
Conditions	mass density
303.15 K, 440.3 kPa, x2 = 0.503	9.824 ± 0.035 kg/m3
303.15 K, 440.7 kPa, x2 = 0.503	9.834 ± 0.035 kg/m3
303.15 K, 449.9 kPa, x2 = 0.503	10.061 ± 0.036 kg/m3
303.15 K, 450 kPa, x2 = 0.503	10.069 ± 0.036 kg/m3
303.15 K, 460 kPa, x2 = 0.503	10.317 ± 0.036 kg/m3
303.15 K, 460.4 kPa, x2 = 0.503	10.325 ± 0.036 kg/m3
303.15 K, 470.2 kPa, x2 = 0.503	10.57 ± 0.037 kg/m3
303.15 K, 470.5 kPa, x2 = 0.503	10.581 ± 0.037 kg/m3
303.15 K, 480 kPa, x2 = 0.503	10.823 ± 0.037 kg/m3
303.15 K, 480.3 kPa, x2 = 0.503	10.83 ± 0.037 kg/m3
303.15 K, 489.7 kPa, x2 = 0.503	11.072 ± 0.037 kg/m3
303.15 K, 490.4 kPa, x2 = 0.503	11.087 ± 0.037 kg/m3
303.15 K, 500.3 kPa, x2 = 0.503	11.344 ± 0.038 kg/m3
303.15 K, 500.4 kPa, x2 = 0.503	11.344 ± 0.037 kg/m3
303.15 K, 510.3 kPa, x2 = 0.503	11.608 ± 0.038 kg/m3
303.15 K, 510.5 kPa, x2 = 0.503	11.6 ± 0.037 kg/m3
303.15 K, 520.4 kPa, x2 = 0.503	11.861 ± 0.038 kg/m3 and 11.864 ± 0.038 kg/m3
303.15 K, 530.4 kPa, x2 = 0.503	12.121 ± 0.038 kg/m3
303.15 K, 530.7 kPa, x2 = 0.503	12.129 ± 0.038 kg/m3
303.15 K, 540.1 kPa, x2 = 0.503	12.37 ± 0.038 kg/m3
303.15 K, 540.2 kPa, x2 = 0.503	12.378 ± 0.038 kg/m3
303.15 K, 550.1 kPa, x2 = 0.503	12.642 ± 0.038 kg/m3
303.15 K, 550.3 kPa, x2 = 0.503	12.642 ± 0.038 kg/m3
303.15 K, 560.3 kPa, x2 = 0.503	12.914 ± 0.038 kg/m3
303.15 K, 564.6 kPa, x2 = 0.503	13.019 ± 0.039 kg/m3
303.15 K, 570.1 kPa, x2 = 0.503	13.17 ± 0.039 kg/m3
303.15 K, 570.4 kPa, x2 = 0.503	13.178 ± 0.039 kg/m3
303.15 K, 575.1 kPa, x2 = 0.503	13.306 ± 0.039 kg/m3
303.15 K, 580.1 kPa, x2 = 0.503	13.434 ± 0.039 kg/m3
303.15 K, 580.7 kPa, x2 = 0.503	13.453 ± 0.039 kg/m3
303.15 K, 584.3 kPa, x2 = 0.503	13.548 ± 0.039 kg/m3
303.15 K, 599.9 kPa, x2 = 0.799	12.55 ± 0.039 kg/m3
303.15 K, 600.1 kPa, x2 = 0.799	12.557 ± 0.039 kg/m3
303.15 K, 609.7 kPa, x2 = 0.799	12.784 ± 0.039 kg/m3
303.15 K, 610.2 kPa, x2 = 0.799	12.802 ± 0.039 kg/m3
303.15 K, 620.2 kPa, x2 = 0.799	13.04 ± 0.021 kg/m3
303.15 K, 630.2 kPa, x2 = 0.799	13.289 ± 0.04 kg/m3
303.15 K, 639.7 kPa, x2 = 0.799	13.516 ± 0.04 kg/m3
303.15 K, 649.7 kPa, x2 = 0.799	13.757 ± 0.04 kg/m3
303.15 K, 659.8 kPa, x2 = 0.799	14.006 ± 0.04 kg/m3
303.15 K, 680.1 kPa, x2 = 0.799	14.516 ± 0.041 kg/m3
303.15 K, 700 kPa, x2 = 0.799	15.01 ± 0.041 kg/m3
303.15 K, 720 kPa, x2 = 0.799	15.515 ± 0.041 kg/m3
303.15 K, 739.9 kPa, x2 = 0.799	16.028 ± 0.041 kg/m3
303.15 K, 760.5 kPa, x2 = 0.799	16.557 ± 0.041 kg/m3
303.15 K, 770.4 kPa, x2 = 0.799	16.821 ± 0.041 kg/m3
303.15 K, 779.5 kPa, x2 = 0.799	17.055 ± 0.041 kg/m3
303.15 K, 780.1 kPa, x2 = 0.799	17.073 ± 0.024 kg/m3
303.15 K, 789.8 kPa, x2 = 0.799	17.319 ± 0.041 kg/m3
303.15 K, 790.1 kPa, x2 = 0.799	17.342 ± 0.041 kg/m3
303.15 K, 799.6 kPa, x2 = 0.799	17.59 ± 0.041 kg/m3
323.15 K, 590.1 kPa, x2 = 0.244	13.582 ± 0.042 kg/m3
323.15 K, 600.1 kPa, x2 = 0.244	13.847 ± 0.043 kg/m3
323.15 K, 600.6 kPa, x2 = 0.249	13.833 ± 0.042 kg/m3
323.15 K, 600.7 kPa, x2 = 0.249	13.848 ± 0.042 kg/m3
323.15 K, 609.5 kPa, x2 = 0.244	14.1 ± 0.043 kg/m3
323.15 K, 610.4 kPa, x2 = 0.249	14.09 ± 0.042 kg/m3
323.15 K, 620.1 kPa, x2 = 0.249	14.354 ± 0.044 kg/m3
323.15 K, 620.5 kPa, x2 = 0.244	14.391 ± 0.043 kg/m3
323.15 K, 620.7 kPa, x2 = 0.249	14.369 ± 0.044 kg/m3
323.15 K, 629.7 kPa, x2 = 0.244	14.643 ± 0.044 kg/m3
323.15 K, 630.3 kPa, x2 = 0.249	14.633 ± 0.043 kg/m3
323.15 K, 630.5 kPa, x2 = 0.244	14.658 ± 0.043 kg/m3
323.15 K, 630.5 kPa, x2 = 0.249	14.64 ± 0.043 kg/m3
323.15 K, 640.1 kPa, x2 = 0.249	14.889 ± 0.044 kg/m3
323.15 K, 640.7 kPa, x2 = 0.244	14.937 ± 0.044 kg/m3
323.15 K, 640.9 kPa, x2 = 0.249	14.923 ± 0.044 kg/m3
323.15 K, 650.1 kPa, x2 = 0.249	15.168 ± 0.044 kg/m3
323.15 K, 650.3 kPa, x2 = 0.244	15.201 ± 0.044 kg/m3
323.15 K, 651.3 kPa, x2 = 0.244	15.223 ± 0.044 kg/m3
323.15 K, 660 kPa, x2 = 0.249	15.436 ± 0.044 kg/m3
323.15 K, 660.1 kPa, x2 = 0.249	15.447 ± 0.045 kg/m3
